Data as given in patent publication US9006187B2, “Thiophene derivative as SGLT2 inhibitor and pharmaceutical composition comprising same” (Green Cross Corporation, priority 2010, dated 2015).

Biological target: Human SGLT2 (hSGLT2) (Homo sapiens (Human), UniProt P31639)
Assay: Inhibitory effects on human SGLT2 activities: sodium-dependent 14C-AMG glucose transport (uptake) assay in CHO cells expressing hSGLT2
Conditions: read-out: hSGLT2 Inhibitory Activity IC50; CHO cells stably expressing hSGLT2; 14C-AMG uptake, 37° C., 2 h; single determinations for examples; in-house assay

Sequence of Human SGLT2 (hSGLT2) (P31639 whole entry): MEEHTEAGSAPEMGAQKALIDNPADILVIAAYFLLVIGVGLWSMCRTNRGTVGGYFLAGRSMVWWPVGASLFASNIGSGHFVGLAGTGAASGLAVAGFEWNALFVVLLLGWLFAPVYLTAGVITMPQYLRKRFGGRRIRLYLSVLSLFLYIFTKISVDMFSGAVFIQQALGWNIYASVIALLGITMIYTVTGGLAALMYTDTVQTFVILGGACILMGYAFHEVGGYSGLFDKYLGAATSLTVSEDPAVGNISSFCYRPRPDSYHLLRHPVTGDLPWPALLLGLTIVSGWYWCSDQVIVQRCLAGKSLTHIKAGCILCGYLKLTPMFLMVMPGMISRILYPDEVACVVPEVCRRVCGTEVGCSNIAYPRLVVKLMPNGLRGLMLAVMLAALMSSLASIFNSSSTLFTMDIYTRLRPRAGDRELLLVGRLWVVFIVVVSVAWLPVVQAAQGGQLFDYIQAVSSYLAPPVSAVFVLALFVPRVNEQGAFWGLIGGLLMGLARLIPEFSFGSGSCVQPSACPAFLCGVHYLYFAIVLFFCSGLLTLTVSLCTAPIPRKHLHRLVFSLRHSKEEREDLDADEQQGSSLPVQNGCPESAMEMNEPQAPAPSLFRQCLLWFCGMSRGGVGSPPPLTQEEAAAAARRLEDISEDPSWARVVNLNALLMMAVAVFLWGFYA

Compound | IC50
OC[C@H]1O[C@@H](c2cc(Cc3ccc(OC4CCOC4)cc3)c(Cl)s2)[C@H](O)[C@@H](O)[C@@H]1O (stereo partly drawn) [Example 16, (2R,3R,4S,5S,6R)-2-(5-chloro-4-(4-(tetrahydrofuran-3-yloxy)benzyl)thiophen-2-yl)-6-(hydroxymethyl)-tetrahydro-2H-pyran-3,4,5-triol] | 162 nM
CCc1ccc(Cc2sc([C@@H]3O[C@H](CO)[C@@H](O)[C@H](O)[C@H]3O)cc2C)cc1 [Example 25, (2R,3R,4S,5S,6R)-2-(5-(4-ethylbenzyl)-4-methylthiophen-2-yl)-6-(hydroxymethyl)tetrahydro-2H-pyran-3,4,5-triol] | 24.8 nM
COc1ccc(Cc2cc([C@@H]3O[C@H](CO)[C@@H](O)[C@H](O)[C@H]3O)sc2Cl)cc1 [Example 2, (2R,3R,4S,5S,6R)-2-(5-chloro-4-(4-methoxybenzyl)thiophen-2-yl)-6-(hydroxymethyl)-tetrahydro-2H-pyran-3,4,5-triol] | 86.5 nM
Cc1sc([C@@H]2O[C@H](CO)[C@@H](O)[C@H](O)[C@H]2O)cc1Cc1ccc(O)cc1 [Example 23, (2R,3R,4S,5S,6R)-2-(4-(4-hydroxybenzyl)-5-methylthiophen-2-yl)-6-(hydroxymethyl)-tetrahydro-2H-pyran-3,4,5-triol] | 50.2 nM
CCCOc1ccc(Cc2cc([C@@H]3O[C@H](CO)[C@@H](O)[C@H](O)[C@H]3O)sc2Cl)cc1 [Example 5, (2R,3R,4S,5S,6R)-2-(5-chloro-4-(4-propoxybenzyl)thiophen-2-yl)-6-(hydroxymethyl)-tetrahydro-2H-pyran-3,4,5-triol] | 65 nM
CCCc1ccc(Cc2cc([C@@H]3O[C@H](CO)[C@@H](O)[C@H](O)[C@H]3O)sc2Cl)cc1 [Example 18, (2R,3R,4S,5S,6R)-2-(5-chloro-4-(4-propylbenzyl)thiophen-2-yl)-6-(hydroxymethyl)-tetrahydro-2H-pyran-3,4,5-triol] | 10.3 nM
OC[C@H]1O[C@@H](c2cc(Cc3ccc(O)cc3)c(Cl)s2)[C@H](O)[C@@H](O)[C@@H]1O [Example 6, (2R,3R,4S,5S,6R)-2-(5-chloro-4-(4-hydroxybenzyl)thiophen-2-yl)-6-(hydroxymethyl)-tetrahydro-2H-pyran-3,4,5-triol] | 140 nM
COc1ccc(Cc2cc([C@@H]3O[C@H](CO)[C@@H](O)[C@H](O)[C@H]3O)sc2C)cc1 [Example 20, (2R,3S,4S,5R,6R)-2-(hydroxymethyl)-6-(4-(4-methoxybenzyl)-5-methylthiophen-2-yl)-tetrahydro-2H-pyran-3,4,5-triol] | 11.5 nM
OC[C@H]1O[C@@H](c2cc(Cc3ccc(-c4ccc(F)cc4)s3)c(Cl)s2)[C@H](O)[C@@H](O)[C@@H]1O [Example 3, (2R,3R,4S,5S,6R)-2-(5-chloro-4-((5-(4-fluorophenyl)thiophen-2-yl)methyl)thiophen-2-yl)-6-(hydroxymethyl)-tetrahydro-2H-pyran-3,4,5-triol] | 91.3 nM
Cc1cc([C@@H]2O[C@H](CO)[C@@H](O)[C@H](O)[C@H]2O)sc1Cc1ccc(C(C)(C)C)cc1 [Example 27, (2R,3R,4S,5S,6R)-2-(5-(4-tert-butylbenzyl)-4-methylthiophen-2-yl)-6-(hydroxymethyl)tetrahydro-2H-pyran-3,4,5-triol] | 88.3 nM
CCCc1ccc(Cc2sc([C@@H]3O[C@H](CO)[C@@H](O)[C@H](O)[C@H]3O)cc2C)cc1 [Example 24, (2R,3S,4S,5R,6R)-2-(hydroxymethyl)-6-(4-methyl-5-(4-propylbenzyl)thiophen-2-yl)tetrahydro-2H-pyran-3,4,5-triol] | 59.8 nM
C#CCOc1ccc(Cc2cc([C@@H]3O[C@H](CO)[C@@H](O)[C@H](O)[C@H]3O)sc2Cl)cc1 [Example 8, (2R,3R,4S,5S,6R)-2-(5-chloro-4-(4-(prop-2-ynyloxy)benzyl)thiophen-2-yl)-6-(hydroxymethyl)-tetrahydro-2H-pyran-3,4,5-triol] | 111 nM
Cc1cc([C@@H]2O[C@H](CO)[C@@H](O)[C@H](O)[C@H]2O)sc1Cc1ccc(Cl)cc1 [Example 28, (2R,3R,4S,5S,6R)-2-(5-(4-chlorobenzyl)-4-methylthiophen-2-yl)-6-(hydroxymethyl)tetrahydro-2H-pyran-3,4,5-triol] | 451 nM
Cc1sc([C@@H]2O[C@H](CO)[C@@H](O)[C@H](O)[C@H]2O)cc1Cc1ccc(-c2ccc(F)cc2)s1 [Example 21, (2R,3R,4S,5S,6R)-2-(4-((5-(4-fluorophenyl)thiophen-2-yl)methyl)-5-methylthiophen-2-yl)-6-(hydroxymethyl)-tetrahydro-2H-pyran-3,4,5-triol] | 21.1 nM
CC#CCOc1ccc(Cc2cc([C@@H]3O[C@H](CO)[C@@H](O)[C@H](O)[C@H]3O)sc2Cl)cc1 [Example 15, (2R,3R,4S,5S,6R)-2-(4-(4-(but-2-ynyloxy)benzyl)-5-chlorothiophen-2-yl)-6-(hydroxymethyl)-tetrahydro-2H-pyran-3,4,5-triol] | 94 nM
OC[C@H]1O[C@@H](c2cc(Cc3ccc(OC4CCCC4)cc3)c(Cl)s2)[C@H](O)[C@@H](O)[C@@H]1O [Example 11, (2R,3R,4S,5S,6R)-2-(5-chloro-4-(4-(cyclopentyloxy)benzyl)thiophen-2-yl)-6-(hydroxymethyl)-tetrahydro-2H-pyran-3,4,5-triol] | 57.2 nM

Compound | IC50
Cc1ccc(Cc2cc([C@@H]3O[C@H](CO)[C@@H](O)[C@H](O)[C@H]3O)sc2Cl)cc1 [Example 14, (2R,3R,4S,5S,6R)-2-(5-chloro-4-(4-methylbenzyl)thiophen-2-yl)-6-(hydroxymethyl)-tetrahydro-2H-pyran-3,4,5-triol] | 60.2 nM
COCCOc1ccc(Cc2cc([C@@H]3O[C@H](CO)[C@@H](O)[C@H](O)[C@H]3O)sc2Cl)cc1 [Example 10, (2R,3R,4S,5S,6R)-2-(5-chloro-4-(4-(2-methoxyethoxy)benzyl)thiophen-2-yl)-6-(hydroxymethyl)-tetrahydro-2H-pyran-3,4,5-triol] | 115 nM
Cc1cc([C@@H]2O[C@H](CO)[C@@H](O)[C@H](O)[C@H]2O)sc1Cc1ccc(F)cc1 [Example 29, (2R,3R,4S,5S,6R)-2-(5-(4-fluorobenzyl)-4-methylthiophen-2-yl)-6-(hydroxymethyl)tetrahydro-2H-pyran-3,4,5-triol] | > 10000 nM
C=CCOc1ccc(Cc2cc([C@@H]3O[C@H](CO)[C@@H](O)[C@H](O)[C@H]3O)sc2Cl)cc1 [Example 4, (2R,3R,4S,5S,6R)-2-(4-(4-(allyloxy)benzyl)-5-chlorothiophen-2-yl)-6-(hydroxymethyl)-tetrahydro-2H-pyran-3,4,5-triol] | 54.6 nM
CCc1ccc(Cc2cc([C@@H]3O[C@H](CO)[C@@H](O)[C@H](O)[C@H]3O)sc2Cl)cc1 [Example 17, (2R,3R,4S,5S,6R)-2-(5-chloro-4-(4-ethylbenzyl)thiophen-2-yl)-6-(hydroxymethyl)-tetrahydro-2H-pyran-3,4,5-triol] | 4.47 nM
CCOCCOc1ccc(Cc2cc([C@@H]3O[C@H](CO)[C@@H](O)[C@H](O)[C@H]3O)sc2Cl)cc1 [Example 13, (2R,3R,4S,5S,6R)-2-(5-chloro-4-(4-(2-ethoxyethoxy)benzyl)thiophen-2-yl)-6-(hydroxymethyl)-tetrahydro-2H-pyran-3,4,5-triol] | 70.7 nM
C=CCOc1ccc(Cc2cc([C@@H]3O[C@H](CO)[C@@H](O)[C@H](O)[C@H]3O)sc2C)cc1 [Example 22, (2R,3R,4S,5S,6R)-2-(4-(4-(allyloxy)benzyl)-5-methylthiophen-2-yl)-6-(hydroxymethyl)-tetrahydro-2H-pyran-3,4,5-triol] | 27.5 nM
CC(C)Oc1ccc(Cc2cc([C@@H]3O[C@H](CO)[C@@H](O)[C@H](O)[C@H]3O)sc2Cl)cc1 [Example 9, (2R,3R,4S,5S,6R)-2-(5-chloro-4-(4-isopropoxybenzyl)thiophen-2-yl)-6-(hydroxymethyl)-tetrahydro-2H-pyran-3,4,5-triol] | 11.9 nM
CCSc1ccc(Cc2cc([C@@H]3O[C@H](CO)[C@@H](O)[C@H](O)[C@H]3O)sc2Cl)cc1 [Example 7, (2R,3R,4S,5S,6R)-2-(5-chloro-4-(4-(ethylthio)benzyl)thiophen-2-yl)-6-(hydroxymethyl)-tetrahydro-2H-pyran-3,4,5-triol] | 48.4 nM
Cc1ccc(Cc2sc([C@@H]3O[C@H](CO)[C@@H](O)[C@H](O)[C@H]3O)cc2C)cc1 [Example 26, (2R,3S,4S,5R,6R)-2-(hydroxymethyl)-6-(4-methyl-5-(4-methylbenzyl)thiophen-2-yl)tetrahydro-2H-pyran-3,4,5-triol] | 69.6 nM
CCOc1ccc(Cc2sc([C@@H]3O[C@H](CO)[C@@H](O)[C@H](O)[C@H]3O)cc2C)cc1 [Example 31, (2R,3R,4S,5S,6R)-2-(5-(4-ethoxybenzyl)-4-methylthiophen-2-yl)-6-(hydroxymethyl)tetrahydro-2H-pyran-3,4,5-triol] | 71.4 nM
CCOc1ccc(Cc2cc([C@@H]3O[C@H](CO)[C@@H](O)[C@H](O)[C@H]3O)sc2Cl)cc1 [Example 1, (2R,3R,4S,5S,6R)-2-(5-chloro-4-(4-ethoxybenzyl)thiophen-2-yl)-6-(hydroxymethyl)-tetrahydro-2H-pyran-3,4,5-triol] | 34.6 nM
CSc1ccc(Cc2cc([C@@H]3O[C@H](CO)[C@@H](O)[C@H](O)[C@H]3O)sc2Cl)cc1 [Example 12, (2R,3R,4S,5S,6R)-2-(5-chloro-4-(4-(methylthio)benzyl)thiophen-2-yl)-6-(hydroxymethyl)-tetrahydro-2H-pyran-3,4,5-triol] | 12.8 nM
CCOc1ccc(Cc2cc([C@@H]3O[C@H](CO)[C@@H](O)[C@H](O)[C@H]3O)sc2C)cc1 [Example 19, (2R,3R,4S,5S,6R)-2-(4-(4-ethoxybenzyl)-5-methylthiophen-2-yl)-6-(hydroxymethyl)-tetrahydro-2H-pyran-3,4,5-triol] | 8.73 nM
COc1ccc(Cc2sc([C@@H]3O[C@H](CO)[C@@H](O)[C@H](O)[C@H]3O)cc2C)cc1 [Example 30, (2R,3S,4S,5R,6R)-2-(hydroxymethyl)-6-(5-(4-methoxybenzyl)-4-methylthiophen-2-yl)tetrahydro-2H-pyran-3,4,5-triol] | 68.9 nM
